# Test results published in patent US11795177B2, “Substituted quinoline analogs as aldehyde dehydrogenase 1A1 (ALDH1A1) inhibitors” (THE UNITED STATES OF AMERICA, AS REPRESENTED BY THE …, priority 2017, dated 2023).
# pIC50: −log10 of the molar value. Counter-ions that a name gives are not always drawn.
# Key:
# ALDH1A1 enzyme = molecular target: T1, ALDH1A1 enzyme (Homo sapiens, UniProt P00352); test: ALDH1A1 enzymatic assay (in vitro); assay type: biochemical; details: ALDH1A1 enzyme 20 nM, NAD+ 1 mM, propionaldehyde 80 μM; read-out: ALDH1A1 IC50
# T1 sequence (P00352 1-501): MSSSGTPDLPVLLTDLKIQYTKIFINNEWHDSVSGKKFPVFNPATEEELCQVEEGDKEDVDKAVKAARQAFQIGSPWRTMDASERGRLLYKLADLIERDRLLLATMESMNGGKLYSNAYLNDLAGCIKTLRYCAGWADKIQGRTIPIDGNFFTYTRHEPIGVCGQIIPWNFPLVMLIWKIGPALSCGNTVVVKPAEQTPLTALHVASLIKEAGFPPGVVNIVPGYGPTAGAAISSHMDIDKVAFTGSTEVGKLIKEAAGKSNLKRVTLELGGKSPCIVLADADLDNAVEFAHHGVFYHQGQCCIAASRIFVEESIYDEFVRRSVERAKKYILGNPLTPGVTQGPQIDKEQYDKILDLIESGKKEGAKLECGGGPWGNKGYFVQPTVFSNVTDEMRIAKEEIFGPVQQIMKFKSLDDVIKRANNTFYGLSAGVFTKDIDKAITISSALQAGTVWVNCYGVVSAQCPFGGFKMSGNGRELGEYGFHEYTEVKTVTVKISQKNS
# Summary of the method: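 ALDH1A1 (20 nM final) in 100 mM HEPES pH 7.5, 0.01% Tween 20 was preincubated 15 min at RT with compound (968 pM–57.2 μM final), then started with 1 mM NAD+ and 80 μM propionaldehyde. NADH fluorescence (ex 340/em 450 nm) followed kinetically for 10 min; change normalized to no-inhibitor and no-enzyme controls for percent inhibition and curve fitting.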
# MIA PaCa-2 cells = test: MIA PaCa2 cell-based assay (1,536-well high-content imaging ALDEFLUOR assay); design: species or system human; details: Homo sapiens, 0.5 h, ALDEFLUOR BAAA substrate 500 nM, 30 minutes
# Summary of the method: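 MIA PaCa-2 cells (1,000/well), plated overnight, given BAAA substrate (500 nM) plus Hoechst 33342 (0.5 nM), then compound (16-point, 1.4 nM–47.8 μM final; 0.5% DMSO). After 30 min at 37° C, ALDH activity imaged by high-content microscopy as BAA-retaining (FITC) cells versus Hoechst-stained nuclei.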
SMILES,pIC50 (ALDH1A1 enzyme),pIC50 (MIA PaCa-2 cells)
"COc1ccc2c(N3CCC(C)(C#N)CC3)c(C(=O)N3CCN(C(=O)C4CC4)CC3)cnc2c1 [Example 101, 1-(3-(4-(cyclopropanecarbonyl)piperazine-1-carbonyl)-7-methoxyquinolin-4-yl)-4-methylpiperidine-4-carbonitrile]",> 6.30,5.00 to 6.00
"N#CC1(c2ccc(-c3c(C(=O)N4CC5(C4)CS(=O)(=O)C5)cnc4ccc(F)cc34)cc2)CC1 [Cpd. 332, 1-(4-(3-(2,2-dioxido-2-thia-6-azaspiro[3.3]heptane-6-carbonyl)-6-fluoroquinolin-4-yl)phenyl)cyclopropane-1-carbonitrile]",> 6.30,5.00 to 6.00
"CC1(C#N)CCN(c2c(C(=O)N3CCN(S(C)(=O)=O)CC3)cnc3cc(F)c(F)cc23)CC1 [Example 136, 1-(6,7-difluoro-3-(4-(methylsulfonyl)piperazine-1-carbonyl)quinolin-4-yl)-4-methylpiperidine-4-carbonitrile]",> 6.30,5.00 to 6.00
"CCS(=O)(=O)N1CCN(C(=O)c2cnc3ccc(F)cc3c2N2CCC3(CC2)OCCO3)CC1 [Example 151, (4-(ethylsulfonyl)piperazin-1-yl)(6-fluoro-4-(1,4-dioxa-8-azaspiro[4.5]decan-8-yl)quinolin-3-yl)methanone]",> 6.30,5.00 to 6.00
"COc1ccc2ncc(C(=O)N3CCN(C(C)=O)CC3)c(N3CCC4(CC3)OCCO4)c2c1 [Example 38, 1-(4-(6-methoxy-4-(1,4-dioxa-8-azaspiro[4.5]decan-8-yl)quinoline-3-carbonyl)piperazin-1-yl)ethanone]",> 6.30,5.00 to 6.00
"CS(=O)(=O)N1CCN(C(=O)c2cnc3ccc(F)cc3c2N2CCC(Cc3ccccc3)CC2)CC1 [Example 198, (4-(4-benzylpiperidin-1-yl)-6-fluoroquinolin-3-yl)(4-(methylsulfonyl)piperazin-1-yl)methanone]",> 6.30,< 5.00
"CCOC(=O)N1CCN(C(=O)c2cnc3ccc(F)cc3c2N2CCC3(CC2)OCCO3)CC1 [Example 54, Ethyl 4-(6-fluoro-4-(1,4-dioxa-8-azaspiro[4.5]decan-8-yl)quinoline-3-carbonyl)piperazine-1-carboxylate]",> 6.30,< 5.00
CS(=O)(=O)C1CCN(C(=O)c2cnc3ccsc3c2-c2ccc(C3(C#N)CC3)cc2)CC1 [Example 283],> 6.30,> 6.30
"N#CC1(c2ccc(F)cc2)CCN(c2c(C(=O)N3CCN(C(=O)C4CC4)CC3)cnc3ccc(F)cc23)CC1 [Example 278, 1-(3-(4-(cyclopropanecarbonyl)piperazine-1-carbonyl)-6-fluoroquinolin-4-yl)-4-(4-fluorophenyl)piperidine-4-carbonitrile]",> 6.30,> 6.30
"CC(O)C1(c2ccccc2)CCN(c2c(C(=O)N3CCN(S(C)(=O)=O)CC3)cnc3ccc(F)cc23)CC1 (stereo not drawn) [Example 253, (6-fluoro-4-(4-(1-hydroxyethyl)-4-phenylpiperidin-1-yl)quinolin-3-yl)(4-(methylsulfonyl)piperazin-1-yl)methanone]",> 6.30,< 5.00
"COc1cc2ncc(C(=O)N3CCN(C(=O)C(C)C)CC3)c(N3CCC(C)(C#N)CC3)c2cc1OC [Example 111, 1-(3-(4-isobutyrylpiperazine-1-carbonyl)-6,7-dimethoxyquinolin-4-yl)-4-methylpiperidine-4-carbonitrile]",> 6.30,5.00 to 6.00
"N#CCC1CCN(c2c(C(=O)N3CCN(C(=O)C4CC4)CC3)cnc3ccc(F)cc23)CC1 [Example 213, 2-(1-(3-(4-(cyclopropanecarbonyl)piperazine-1-carbonyl)-6-fluoroquinolin-4-yl)piperidin-4-yl)acetonitrile]",5.00 to 6.00,5.00 to 6.00
"CC1(C#N)CCN(c2c(C(=O)N3CCN(C(=O)C4CC4)C(C)(C)C3)cnc3ccc(F)cc23)CC1 [Example 231, 1-(3-(4-(cyclopropanecarbonyl)-3,3-dimethylpiperazine-1-carbonyl)-6-fluoroquinolin-4-yl)-4-methylpiperidine-4-carbonitrile]",< 5.00,< 5.00

# Next, values leading:
pIC50 (ALDH1A1 enzyme),pIC50 (MIA PaCa-2 cells),SMILES
> 6.30,> 6.30,"CNC(=O)C1CCN(C(=O)c2cnc3ccc(F)cc3c2-c2ccc(C3(C#N)CC3)cc2)CC1 [Cpd. 333, 1-(4-(4-(1-cyanocyclopropyl)phenyl)-6-fluoroquinoline-3-carbonyl)-N-methylpiperidine-4-carboxamide]"
> 6.30,< 5.00,"COc1ccc2ncc(C(=O)N3CCN(C(=O)C4CC4)CC3)c(N3CCC(OC)CC3)c2c1 [Example 3, (4-(cyclopropanecarbonyl)piperazin-1-yl)(6-methoxy-4-(4-methoxypiperidin-1-yl)quinolin-3-yl)methanone, TFA]"
5.00 to 6.00,< 5.00,"COc1ccc2ncc(C(=O)N3CCN(C4CCCC4)CC3)c(N3CCC4(CC3)OCCO4)c2c1 [Example 9, (4-cyclopentylpiperazin-1-yl)(6-methoxy-4-(1,4-dioxa-8-azaspiro[4.5]decan-8-yl)quinolin-3-yl)methanone, TFA]"
> 6.30,5.00 to 6.00,"CC1(C#N)CCN(c2c(C(=O)N3CCN(C(=O)C4CC4)CC3)cnc3ccccc23)CC1 [Example 93, 1-(3-(4-(cyclopropanecarbonyl)piperazine-1-carbonyl)quinolin-4-yl)-4-methylpiperidine-4-carbonitrile]"
> 6.30,6.00 to 6.30,"CN(C)S(=O)(=O)N1CCN(C(=O)c2cnc3c(F)cc(F)cc3c2N2CCC3(CC2)OCCO3)CC1 [Example 162, 4-(6,8-difluoro-4-(1,4-dioxa-8-azaspiro[4.5]decan-8-yl)quinoline-3-carbonyl)-N,N-dimethylpiperazine-1-sulfonamide]"
5.00 to 6.00,< 5.00,"CCNC(=O)N1CCN(C(=O)c2cnc3ccccc3c2N2CCC(C)(C#N)CC2)CC1 [Example 99, 4-(4-(4-cyano-4-methylpiperidin-1-yl)quinoline-3-carbonyl)-N-ethylpiperazine-1-carboxamide]"
> 6.30,< 5.00,"COc1ccc2ncc(C(=O)N3CCN(C(=O)C4CC4)CC3)c(N3CCC(C)(OC)CC3)c2c1 [Example 26, (4-(cyclopropanecarbonyl)piperazin-1-yl)(6-methoxy-4-(4-methoxy-4-methylpiperidin-1-yl)quinolin-3-yl)methanone]"
> 6.30,5.00 to 6.00,"CS(=O)(=O)N1CCN(C(=O)c2cnc3c(F)cc(F)cc3c2N2CCC3(CC2)OCCO3)CC1 [Example 131, (6,8-difluoro-4-(1,4-dioxa-8-azaspiro[4.5]decan-8-yl)quinolin-3-yl)(4-(methylsulfonyl)piperazin-1-yl)methanone]"
> 6.30,5.00 to 6.00,"O=C(C1CC1)C1CCN(C(=O)c2cnc3cc(F)c(F)cc3c2N2CCC3(CC2)OCCO3)CC1 [Example 193, (4-(cyclopropanecarbonyl)piperidin-1-yl)(6,7-difluoro-4-(1,4-dioxa-8-azaspiro[4.5]decan-8-yl)quinolin-3-yl)methanone]"
> 6.30,< 5.00,"COc1ccc2ncc(C(=O)N3CCC(c4ccccc4)CC3)c(N3CCC4(CC3)OCCO4)c2c1 [Example 10, (6-methoxy-4-(1,4-dioxa-8-azaspiro[4.5]decan-8-yl)quinolin-3-yl)(4-phenylpiperidin-1-yl)methanone, TFA]"
> 6.30,5.00 to 6.00,"CS(=O)(=O)N1CCN(C(=O)c2cnc3cc(F)c(F)cc3c2N2CCC3(CC2)OCCO3)CC1 [Example 132, (6,7-difluoro-4-(1,4-dioxa-8-azaspiro[4.5]decan-8-yl)quinolin-3-yl)(4-(methylsulfonyl)piperazin-1-yl)methanone]"
5.00 to 6.00,< 5.00,"CS(=O)(=O)N1CCN(C(=O)c2cnc3ccc(F)cc3c2N2CCN(S(C)(=O)=O)CC2)CC1 [Cpd. 307, (6-fluoro-4-(4-(methylsulfonyl)piperazin-1-yl)quinolin-3-yl)(4-(methylsulfonyl)piperazin-1-yl)methanone]"
> 6.30,5.00 to 6.00,"CCC(=O)N1CCN(C(=O)c2cnc3ccc(F)cc3c2N2CCC3(CC2)OCCO3)CC1 [Example 70, 1-(4-(6-fluoro-4-(1,4-dioxa-8-azaspiro[4.5]decan-8-yl)quinoline-3-carbonyl)piperazin-1-yl)propan-1-one]"
> 6.30,> 6.30,"N#CC1(c2ccccc2)CCN(c2c(C(=O)N3CC4(C3)CS(=O)(=O)C4)cnc3ccc(F)cc23)CC1 [Cpd. 328, 1-(3-(2,2-dioxido-2-thia-6-azaspiro[3.3]heptane-6-carbonyl)-6-fluoroquinolin-4-yl)-4-phenylpiperidine-4-carbonitrile]"
